Holding throughout (test): inhibition of tumour cell growth, NCI panel, 48 h
Test [1] concerns NCI-H23 lung.
Test [2] deals with K-562 leukemia.
In test [3] the test system is SF-268 CNS.
Test [4] concerns UO-31 renal.
Test [5] has as its system EKVX NSCLC.
The subject of test [6] is OVCAR-3 ovarian.
In test [7] the test system is HCT-116 colon.
For test [8], the system named is DU-145 prostate.
For test [9], the system named is HOP-92 NSCLC.
For test [10], the system named is UACC-62 melanoma.

Each structure is given as a SMILES string.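 How tested: cells in 96-well plates exposed to compound for 48 hours at five concentrations. The concentration for 50% growth inhibition is given as GI50. TGI: concentration producing complete growth inhibition.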

With `COc1cc(OC)c2[nH]c3c(O)c(-c4c(C)cc5c([nH]c6c(OC)cc(OC)cc65)c4O)c(C)cc3c2c1`, the values for the GI50 in test [1], in test [2] and in [4] were 8.2 µM, 9.7 µM and 6.83 µM, respectively. The TGI in test [1] stood at 16.7 µM; in test [2], 20.5 µM; in test [3], 15.9 µM; in test [4], 13.3 µM; in test [5], 12.7 µM; in [6], 18.6 µM. Besides, the figures for the TGI in test [7], in test [8] and in test [9] were 15.7 µM, 15 µM and 15.6 µM, respectively.

Consider `CNC1(C(=O)O)CC1`, for which the TGI in [1], in test [2], in [3], in [5], in test [6] and in [7] was over 100 µM in each case. The TGI in [8], in test [10] and in test [9] was over 100 µM throughout.

For `CCCCCCCCCCCCCCCCCCOCC(O)COP(=O)(O)OCC1OC(n2ccc(N)nc2=O)C(O)C1O` (centres undefined), the TGI in test [1] is over 100 µM; in test [2], over 100 µM; in [3] it was 49.8 µM; in [5] it was over 100 µM; in test [6] it was over 100 µM; in test [7], over 100 µM. Moreover, the TGI was over 100 µM in test [8], 70.2 µM in [10] and 71.8 µM in test [9].

In the case of `CCOC(=O)NN(C(=O)OCC)c1c(C)cc(C)cc1C`, the TGI in test [1], in test [2], in test [3], in test [4], in [5] and in test [6] was over 100 µM in each case. Also, the TGI in test [7], in test [8] and in test [10] was over 100 µM throughout.

As for `Cc1ccc(Nc2nc3c(=O)n(C)c(=O)n(C)c3nc2Nc2ccc(C)cc2)cc1`, the TGI in [1] is 31.2 µM; in [2], over 100 µM; in [3], 32.2 µM; in [4], 24.4 µM; in test [5] it was 30 µM; in test [7], 22.1 µM. For the same compound, the figures for the TGI in test [8], in test [10] and in test [9] were over 100 µM, 25 µM and 23.5 µM, respectively.

On to `O=C(NNC(=O)c1csc(NC(=S)NC2CCCCC2)n1)c1ccccc1`, for which the TGI in [1] is 40.6 µM; in [3], over 100 µM; in test [4], 28.3 µM; in test [5], 28.4 µM; in [6], 16.4 µM; in [7] it was 15.9 µM. The TGI is 51.3 µM in [8] and 23.9 µM in test [10].

Take `CCOC(=O)c1nc2ccc(C(F)(F)F)cc2nc1Oc1ccc(C(=O)OC)cc1`: the TGI in test [1], in test [2], in [3], in [4], in test [5] and in test [7] was over 100 µM each time. Besides, the TGI in test [8], in test [10] and in [9] was over 100 µM in each case.

Turning to `CCOC(=O)C(Cl)(NC(=O)OCc1ccccc1)C(F)(F)F` (centres undefined), the TGI in [1], in [2], in [3], in [4], in [5] and in test [6] was over 100 µM each time. Besides, the TGI in test [7], in test [8] and in [9] was over 100 µM each time.

Regarding `Cc1cccc(N/C(Sc2ccccc2)=C(/C(Cl)=C(Cl)Cl)[N+](=O)[O-])c1`, the TGI in test [1] stood at 37 µM; in [2], 57.8 µM; in [3], 34.2 µM; in test [4], 29.9 µM; in test [5], 42.7 µM; in [6], 21.6 µM. Also, the TGI in [7] is 28.7 µM; in test [8] it was 62.2 µM; in test [10], 54.6 µM.

Consider `COc1cccc(/C=C2\S/C(=N/Nc3nc(-c4ccc([N+](=O)[O-])cc4)cs3)NC2=O)c1O`, for which the TGI in test [1] came to 33.5 µM; in [3], 21.8 µM; in test [4], 28.9 µM; in test [5] it was 43 µM; in test [6], 30.1 µM; in test [7], 27.8 µM. Also, the figures for the TGI in test [8] and in [9] were 68.1 µM and 33.6 µM, respectively.

For the compound `COc1ccccc1C1c2cc3c(cc2OC(N2CCOCC2)C1C)OCO3` (centres undefined), the TGI in test [1] was determined as 58.7 µM; in [2] it was 24 µM; in [3], 40.9 µM; in test [4], 42.8 µM; in [5], 89.6 µM; in test [6], 29.5 µM. The TGI in test [7] came out at 26.2 µM; in test [8], 51.4 µM; in [10] it was 35.5 µM.

For the compound `Cc1[nH]c(=O)nc(NNCc2ccc(Cl)cc2)c1C(=O)Nc1ccc(Cl)cc1`, the TGI in test [1], in test [4], in [6], in test [7], in test [8] and in [10] was over 100 µM in each case. In addition, in test [9], the TGI was over 100 µM.

In the case of `CCOC(=O)/C=C(/C)Nc1nc2c(c(C(=O)OC)c1C#N)CCCC2`, the TGI in [1], in test [2], in test [3], in [4], in test [5] and in [7] was over 100 µM throughout. The TGI in test [8], in [10] and in test [9] was over 100 µM throughout.

As for `CC1(C)N=C(C2CCCN2C(=O)OCc2ccccc2)OC1=O` (centres undefined), the TGI in [1], in [2], in test [3], in test [4], in [6] and in test [7] was over 100 µM each time. The TGI in test [8] and in [10] was over 100 µM throughout.
